Experimental data published in patent US20260207704A1, “STAPLED PEPTIDES AND METHODS THEREOF” (priority 2022, published 2026).
Where two headings read alike, the source gives them in different places. *1 amine or outer side, *2 acyl side, *3 side chain or, on linkers, in order; H or OH if unused. Bridges are numbered along the chain shown (N, C = ends). Primed or numbered codes have the meaning given here. [ ]: non-standard residue; d: D form. PyrS2(6) = (S)-3-amino-1-((pent-4-en-1-yloxy)carbonyl)pyrrolidine-3-carboxylic acid, stapled with another olefin-containing amino acid residue through the olefin group, O=C(OCCCC=[*:3])N1CC[C@@](N[*:1])(C(=O)[*:2])C1; B5(4) = 2-amino-2-(pent-4-en-1-yl)hept-6-enoic acid, stapled through each of its two olefin groups with other olefin-containing amino acid residues, O=C(C(CCCC=[*:3])(CCCC=[*:4])N[*:1])[*:2]; PyrS2″ = (S)-3-amino-1-((pent-4-en-1-yloxy)carbonyl)pyrrolidine-3-carboxylic acid (olefin stapling residue), C=CCCCOC(=O)N1CC[C@@](N[*:1])(C(=O)[*:2])C1; PyrS2(5) = (S)-3-amino-1-((pent-4-en-1-yloxy)carbonyl)pyrrolidine-3-carboxylic acid, C=CCCCOC(=O)N1CC[C@@](N[*:1])(C(=O)[*:2])C1; B5″ = 2-amino-2-(pent-4-en-1-yl)hept-6-enoic acid (bis-olefin stapling residue), C=CCCCC(CCCC=C)(N[*:1])C(=O)[*:2]; B5(5) = 2-amino-2-(pent-4-en-1-yl)hept-6-enoic acid (two olefin arms), C=CCCCC(CCCC=C)(N[*:1])C(=O)[*:2]; Phe(3-COOH) = N[C@@H](Cc1cccc(C(=O)O)c1)C(=O)O; 2F3MeF = Cc1cccc(C[C@H](N[*:1])C(=O)[*:2])c1F; Bta = N[C@@H](Cc1csc2ccccc12)C(=O)O; αAllylPro = C=CC[C@@]1(C(=O)O)CCCN1; tBuAla = CC(C)(C)C[C@H](N)C(=O)O; 3Thi = N[C@@H](Cc1ccsc1)C(=O)O; TriAzLys(3) = not defined here; hSer = N[C@@H](CCO)C(=O)O; 2F3MeF(4) = Phe analogue; AsnR = not defined here; GlnR = not defined here; sAla = not defined here; Aib = CC(C)(N)C(=O)O

Assays:
COLO320DM cells = assay: COLO320DM proliferation assay; type: cell-based, human; settings: read-out: COLO320DM Proliferation Abs IC50
Description: Various technologies can be utilized to assess technologies of the present disclosure. For example, in some embodiments, solubility, LogD, interactions with targets, etc. of various agents such as stapled peptides were assessed using technologies described in WO 2022/261257 (e.g., those in its Examples). In some embodiments, solubility, shake flask LogD, and binding to beta-catenin were assessed. In some embodiments, an assay for assessing interactions, e.g., with beta-catenin, was fluorescence polarization as described in WO 2022/261257. In some embodiments, an assay was Nano-BRET target engagement assay that assessed beta-catenin/TCF4 engagement as described in WO 2022/261257. In some embodiments, an assay was a reporter assay as reported in Example 4 of WO 2022/261257. In some embodiments, an assay was a COLO320DM proliferation assay as reported in Example 4 of WO 2022/261257.
Among other things, provided technologies can inhibit proliferation of various cells including various cancer cells. In some embodiments, provided technologies modulate WNT specific transcription. In some embodiments, provided technologies induce cell cycle arrest. In some embodiments, provided technologies induce G1 cell cycle arrest. In some embodiments, provided technologies increased proportion of cells in G1 phase of cell cycle. As confirmed in FIG. 3, provided technologies can inhibit proliferation of COLO320DM, which is a colorectal cell line comprising various mutations such as APC, TP53, etc., modulate WNT specific transcription such as of AXIN2 and CXCL12, and induce G1 cell cycle arrest. In some embodiments, it was confirmed that provided technologies can reduce proportion of cells in S phase of cell cycle.

DLD1 reporter = assay: reporter assay (DLD1 reporter assay); type: cell-based; settings: read-out: DLD1 4% Abs IC50
beta-catenin (human) = assay: fluorescence polarization; bin >750 nM

IC50 (beta-catenin (human))	Molecule	IC50 (COLO320DM cells)	IC50 (DLD1 reporter; DLD1 4%)	IC50 (DLD1 reporter; DLD1 reporter, 4%)
	CC(=O)N1CCC[C@]12CC=CCCCC1(CCCC=CCCCOC(=O)N3CC[C@@]4(C3)NC(=O)[C@H](CCCCNC(=O)CC[C@@H](C(=O)N[C@@H](CC(C)C)C(=O)N[C@@H](CO)C(N)=O)NC(=O)[C@H](Cc3csc5ccccc35)NC(=O)[C@H](Cc3ccccc3C(F)(F)F)NC4=O)NC(=O)[C@H](Cc3ccccc3)NC(=O)[C@H](C)NC(=O)C(C)(C)NC(=O)[C@H](Cc3cccc(C(=O)O)c3)NC(=O)[C@H](CC(=O)O)NC1=O)NC(=O)[C@H](CC(C)(C)C)NC(=O)[C@H](CC(=O)O)NC2=O (relative stereo) [I-138, Ac-PL3-Asp-Npg-B5-Asp-3COOHF-Aib-Ala-Phe-Lys*3-PyrS2-2F3MeF-BztA-GlnR*3-Leu-Ser-NH2]	≤ 10 µM	≤ 1 µM	
	CC(=O)N1CCC[C@]12CC=CCCCC1(CCCC=CCCCOC(=O)N3CC[C@@]4(C3)NC(=O)[C@H](CCCCn3cc(nn3)C[C@@H](C(=O)N[C@@H](C)C(N)=O)NC(=O)[C@H](Cc3csc5ccccc35)NC(=O)[C@H](Cc3ccsc3)NC4=O)NC(=O)[C@H](Cc3ccccc3)NC(=O)[C@H](C)NC(=O)C(C)(C)NC(=O)[C@H](Cc3cccc(C(=O)O)c3)NC(=O)[C@H](CC(=O)O)NC1=O)NC(=O)[C@H](CC(C)(C)C)NC(=O)[C@H](CC(=O)O)NC2=O (single isomer, unassigned) [I-335, Ac-PL3-Asp-Npg-B5-Asp-3COOHF-Aib-Ala-Phe-TriAzLys*3-PyrS2-3Thi-BztA-sAla*3-Ala-NH2]	≤ 10 µM		≤ 1 µM
	CC(=O)N1CCC[C@]12CC=CCCCC1(CCCC=CCCCOC(=O)N3CC[C@@]4(C3)NC(=O)[C@H](CCCCn3cc(nn3)COC[C@@H](C(=O)N[C@@H](C)C(N)=O)NC(=O)[C@H](Cc3csc5ccccc35)NC(=O)[C@H](Cc3ccsc3)NC4=O)NC(=O)[C@H](Cc3ccccc3)NC(=O)[C@H](C)NC(=O)C(C)(C)NC(=O)[C@H](Cc3cccc(C(=O)O)c3)NC(=O)[C@H](CC(=O)O)NC1=O)NC(=O)[C@H](CC(C)(C)C)NC(=O)[C@H](CC(=O)O)NC2=O (relative stereo) [I-262, Ac-PL3-Asp-Npg-B5-Asp-3COOHF-Aib-Ala-Phe-TriAzLys*3-PyrS2-3Thi-BztA-sCH2S*3-Ala-NH2]	≤ 10 µM	≤ 1 µM	
	CC(=O)N1CCC[C@]12CC=CCCCC1(CCCC=CCCCOC(=O)N3CC[C@@]4(C3)NC(=O)[C@H](CCCCNC(=O)CC[C@@H](C(=O)N[C@@H](C)C(N)=O)NC(=O)[C@H](Cc3csc5ccccc35)NC(=O)[C@H](Cc3ccccc3C(F)(F)F)NC4=O)NC(=O)[C@H](Cc3ccccc3)NC(=O)[C@H](C)NC(=O)C(C)(C)NC(=O)[C@H](Cc3cccc(C(=O)O)c3)NC(=O)[C@H](CC(=O)O)NC1=O)NC(=O)[C@H](CC(C)(C)C)NC(=O)[C@H](CC(=O)O)NC2=O (single isomer, unassigned) [I-69, Ac-PL3-Asp-Npg-B5-Asp-3COOHF-Aib-Ala-Phe-Lys*3-PyrS2-2F3MeF-BztA-GlnR*3-Ala-NH2]	≤ 10 µM	≤ 1 µM	
	CC(=O)N1CCC[C@]12CC=CCCCC1(CCCC=CCCCOC(=O)N3CC[C@@]4(C3)NC(=O)[C@H](CCCCNC(=O)CC[C@@H](C(=O)N[C@@H](C)C(N)=O)NC(=O)[C@H](Cc3csc5ccccc35)NC(=O)[C@H](Cc3ccncc3)NC4=O)NC(=O)[C@H](Cc3ccccc3)NC(=O)[C@H](C)NC(=O)C(C)(C)NC(=O)[C@H](Cc3cccc(C(=O)O)c3)NC(=O)[C@H](CC(=O)O)NC1=O)NC(=O)[C@H](CC(C)(C)C)NC(=O)[C@H](CC(=O)O)NC2=O (relative stereo) [I-301, Ac-PL3-Asp-Npg-B5-Asp-3COOHF-Aib-Ala-Phe-Lys*3-PyrS2-4PyrA-BztA-GlnR*3-Ala-NH2]	> 20 µM		
	CC(=O)N1CCC[C@]12CC=CCCCC1(CCCC=CCCCOC(=O)N3CC[C@@]4(C3)NC(=O)[C@H](CCCCNC(=O)CC[C@@H](C(=O)N[C@@H](C)C(N)=O)NC(=O)[C@H](Cc3csc5ccccc35)NC(=O)[C@H](Cc3ccsc3)NC4=O)NC(=O)[C@H](Cc3ccccc3)NC(=O)[C@H](C)NC(=O)C(C)(C)NC(=O)[C@H](Cc3cccc(C(=O)O)c3)NC(=O)[C@H](CC(=O)O)NC1=O)NC(=O)[C@H](CCCN1CCOCC1)NC(=O)[C@H](CC(=O)O)NC2=O (relative stereo) [I-313, Ac-PL3-Asp-MorphNva-B5-Asp-3COOHF-Aib-Ala-Phe-Lys*3-PyrS2-3Thi-BztA-GlnR*3-Ala-NH2]	> 20 µM		
	CC(=O)N1CCC[C@]12CC=CCCCC1(CCCC=CCCCOC(=O)N3CC[C@@]4(C3)NC(=O)[C@H](CCCCNC(=O)CC[C@@H](C(=O)N[C@@H](C)C(N)=O)NC(=O)[C@H](Cc3csc5ccccc35)NC(=O)[C@H](Cc3ccsc3)NC4=O)NC(=O)[C@H](Cc3ccccc3)NC(=O)[C@H](C)NC(=O)C(C)(C)NC(=O)[C@H](Cc3cccc(C(=O)O)c3)NC(=O)[C@H](CC(=O)O)NC1=O)NC(=O)[C@H](C1CCCCC1)NC(=O)[C@H](CC(=O)O)NC2=O (single isomer, unassigned) [I-253, Ac-PL3-Asp-Chg-B5-Asp-3COOHF-Aib-Ala-Phe-Lys*3-PyrS2-3Thi-BztA-GlnR*3-Ala-NH2]	≤ 10 µM		
	CCCC[C@@H]1NC(=O)[C@H](Cc2cccc(C(=O)O)c2)NC(=O)[C@H](CC(=O)O)NC(=O)C2(CCCC=CCCCOC(=O)N3CC[C@@]4(C3)NC(=O)[C@H](CCCCNC(=O)CC[C@@H](C(=O)N[C@@H](C)C(N)=O)NC(=O)[C@H](Cc3csc5ccccc35)NC(=O)[C@H](Cc3ccsc3)NC4=O)NC(=O)[C@H](Cc3ccccc3)NC(=O)[C@H](C)NC1=O)CCCC=CC[C@]1(CCCN1C(C)=O)C(=O)N[C@@H](CC(=O)O)C(=O)N[C@@H](CC(C)(C)C)C(=O)N2 (relative stereo) [I-70, Ac-PL3-Asp-Npg-B5-Asp-3COOHF-nLeu-Ala-Phe-Lys*3-PyrS2-3Thi-BztA-GlnR*3-Ala-NH2]	≤ 10 µM	≤ 1 µM	
	CC(=O)N1CCC[C@]12CC=CCCCC1(CCCC=CCCCOC(=O)N3CC[C@@]4(C3)NC(=O)[C@H](CCCCNC(=O)CC[C@@H](C(=O)N3CCC[C@H]3CO)NC(=O)[C@H](Cc3csc5ccccc35)NC(=O)[C@H](Cc3ccsc3)NC4=O)NC(=O)[C@H](Cc3ccccc3)NC(=O)[C@H](C)NC(=O)[C@H](C)NC(=O)[C@H](Cc3cccc(C(=O)O)c3)NC(=O)[C@H](CC(=O)O)NC1=O)NC(=O)[C@H](CC(C)(C)C)NC(=O)[C@H](CC(=O)O)NC2=O (relative stereo) [I-64, Ac-PL3-Asp-Npg-B5-Asp-3COOHF-Ala-Ala-Phe-Lys*3-PyrS2-3Thi-BztA-GlnR*3-Prool]	10 to 20 µM	1 to 5 µM	
	CC(=O)N1CCC[C@]12CC=CCCCC1(CCCC=CCCCOC(=O)N3CC[C@@]4(C3)NC(=O)[C@H](CCCCNC(=O)CC[C@@H](C(=O)N[C@@H](C)C(N)=O)NC(=O)[C@H](Cc3csc5ccccc35)NC(=O)[C@H](Cc3ccsc3)NC4=O)NC(=O)[C@H](Cc3ccccc3)NC(=O)[C@H](C)NC(=O)C(C)(C)NC(=O)[C@H](Cc3cccc(C(=O)O)c3)NC(=O)[C@H](CC(=O)O)NC1=O)NC(=O)[C@H](C)NC(=O)[C@H](CC(=O)O)NC2=O (relative stereo) [I-304, Ac-PL3-Asp-Ala-B5-Asp-3COOHF-Aib-Ala-Phe-Lys*3-PyrS2-3Thi-BztA-GlnR*3-Ala-NH2]	≤ 10 µM		
< 1 µM	Ac-[αAllylPro]D[tBuAla][B5(4)]DD[sAla]AF[TriAzLys(3)][PyrS2(6)][3Thi][Bta]Q-NH2 (triazole 7-10; not fully specified (bridges); printed as Ac-PL3-Asp-Npg-B5-Asp-Asp-sAla*3-Ala-Phe-TriAzLys*3-PyrS2-3Thi-BztA-Gln-NH2; reading uncertain) [I-26]			
< 1 µM	Ac-[αAllylPro]D[tBuAla][B5(5)]D[Phe(3-COOH)]AAF[AsnR][PyrS2(5)][3Thi][Bta]K-NH2 (bridge 10-14; not fully specified (bridges); printed as Ac-PL3-Asp-Npg-B5-Asp-3COOHF-Ala-Ala-Phe-AsnR*3-PyrS2-3Thi-BztA-Lys*3-NH2; reading uncertain) [I-35]			
< 1 µM	Ac-[αAllylPro][hSer][tBuAla][B5″]D[Phe(3-COOH)][Aib]AFK[PyrS2″][2F3MeF][Bta][GlnR]LS-NH2 (bridge 10-14; reading uncertain; also: PL3-B5 and PyrS2 links not placed, printed as Ac-PL3-Hse-Npg-B5-Asp-3COOHF-Aib-Ala-Phe-Lys*3-PyrS2-2F3MeF-BztA-GlnR*3-Leu-Ser-NH2) [I-147]			
< 1 µM	Ac-[αAllylPro]D[tBuAla][B5(4)]D[Phe(3-COOH)][sAla]AF[TriAzLys(3)][PyrS2(6)][2F3MeF(4)][Bta]Q-NH2 (triazole 7-10; not fully specified (bridges); printed as Ac-PL3-Asp-Npg-B5-Asp-3COOHF-sAla*3-Ala-Phe-TriAzLys*3-PyrS2-2F3MeF-BztA-Gln-NH2; reading uncertain) [I-28]			
